Reference: ChEMBL document CHEMBL5518185, “Design, synthesis and antitumor activity of 4-arylamine substituted pyrimidine derivatives as noncovalent EGFR inhibitors overcoming C797S mutation” (Eur J Med Chem, 2024)
Active and inactive are the calls of the source. The rule behind the calls is not given here.

Tests used:
[1] = biological target: T1, Epidermal growth factor receptor (Homo sapiens, UniProt P00533); experiment: Inhibition of wild type EGFR (unknown origin) at 100 nM preincubated for 10 mins followed by substrate addition and measured after 50 mins in presence of ATP by HTRF assay relative to control; details: time 60.0 min
T1 sequence (P00533 whole entry): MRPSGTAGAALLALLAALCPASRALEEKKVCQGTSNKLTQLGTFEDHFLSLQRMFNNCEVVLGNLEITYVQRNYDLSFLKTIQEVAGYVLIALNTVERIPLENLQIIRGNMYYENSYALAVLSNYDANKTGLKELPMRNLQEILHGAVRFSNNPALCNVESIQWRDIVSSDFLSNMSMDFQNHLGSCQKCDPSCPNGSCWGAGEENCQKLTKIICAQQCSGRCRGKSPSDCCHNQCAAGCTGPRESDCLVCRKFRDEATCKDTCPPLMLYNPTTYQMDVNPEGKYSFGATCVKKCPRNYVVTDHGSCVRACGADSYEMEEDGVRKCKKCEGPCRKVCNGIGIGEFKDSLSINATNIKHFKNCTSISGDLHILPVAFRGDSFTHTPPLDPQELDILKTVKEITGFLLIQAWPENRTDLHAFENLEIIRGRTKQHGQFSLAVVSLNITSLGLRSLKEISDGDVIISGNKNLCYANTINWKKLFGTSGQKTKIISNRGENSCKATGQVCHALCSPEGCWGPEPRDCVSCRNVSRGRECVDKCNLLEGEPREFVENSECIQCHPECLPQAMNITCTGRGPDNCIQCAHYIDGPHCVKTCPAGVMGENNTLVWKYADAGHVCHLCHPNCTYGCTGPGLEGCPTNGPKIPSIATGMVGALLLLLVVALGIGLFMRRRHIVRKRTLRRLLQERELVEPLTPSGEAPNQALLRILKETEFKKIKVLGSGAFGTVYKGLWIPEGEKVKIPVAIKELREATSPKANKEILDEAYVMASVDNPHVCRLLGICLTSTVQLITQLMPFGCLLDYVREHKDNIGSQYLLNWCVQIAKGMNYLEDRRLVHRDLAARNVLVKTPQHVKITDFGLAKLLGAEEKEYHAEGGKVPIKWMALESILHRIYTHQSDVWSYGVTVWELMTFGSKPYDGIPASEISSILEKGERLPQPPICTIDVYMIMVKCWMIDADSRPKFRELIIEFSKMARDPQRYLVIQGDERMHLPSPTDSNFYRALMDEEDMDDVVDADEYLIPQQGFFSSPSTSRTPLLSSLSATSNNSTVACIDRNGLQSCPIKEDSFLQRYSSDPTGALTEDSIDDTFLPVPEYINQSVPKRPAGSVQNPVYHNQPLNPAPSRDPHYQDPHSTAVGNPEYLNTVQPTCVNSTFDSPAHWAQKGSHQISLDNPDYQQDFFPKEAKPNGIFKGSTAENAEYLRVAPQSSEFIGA

[2] = biological target: Epidermal growth factor receptor (Homo sapiens, UniProt P00533, C797S/L858R/T790M); experiment: Inhibition of EGFR L858R/T790M/C797S triple mutant (unknown origin) preincubated for 10 mins followed by substrate addition and measured after 50 mins in presence of ATP by HTRF assay
[3] = biological target: T1, Epidermal growth factor receptor; experiment: Inhibition of wild type EGFR (unknown origin) preincubated for 10 mins followed by substrate addition and measured after 50 mins in presence of ATP by HTRF assay
HCC827 [4] = experiment: Antitumor activity against human HCC827 cells xenografted in BALB/c nude mouse assessed as tumor growth inhibition at 50 mg/kg/day, po measured every three days for 21 days by vernier caliper based analysis relative to control; type: functional; details: HCC827, 504 h, time 21 day, read-out: TGI
Homo sapiens [5] = species: Homo sapiens; experiment: Inhibition of VGFR (unknown origin) by HTRF assay relative to control; details: concentration not given here
HCC827 [6] = experiment: Antitumor activity against human HCC827 cells xenografted in BALB/c nude mouse assessed as tumor growth inhibition at 10 mg/kg/day, po measured every three days for 21 days by vernier caliper based analysis relative to control; type: functional; details: HCC827, 504 h, time 21 day, read-out: TGI
HCC827 [7] = experiment: Induction of apoptosis in human HCC827 cells assessed as viable cells at 10 nM measured after 24 hrs by annexin V/PI staining based flu cytometry analysis (reference value: 84.0%); type: functional; details: read-out: Activity
[8] = biological target: Mitogen-activated protein kinase; ERK1/ERK2 (Homo sapiens) (UniProt P27361+P28482); experiment: Inhibition of ERK1/2 phosphorylation (unknown origin) at 100 nM by Western blotting analysis; type: protein assay
Chain of Mitogen-activated protein kinase; ERK1/ERK2 (Homo sapiens) (P27361 whole entry, looked up): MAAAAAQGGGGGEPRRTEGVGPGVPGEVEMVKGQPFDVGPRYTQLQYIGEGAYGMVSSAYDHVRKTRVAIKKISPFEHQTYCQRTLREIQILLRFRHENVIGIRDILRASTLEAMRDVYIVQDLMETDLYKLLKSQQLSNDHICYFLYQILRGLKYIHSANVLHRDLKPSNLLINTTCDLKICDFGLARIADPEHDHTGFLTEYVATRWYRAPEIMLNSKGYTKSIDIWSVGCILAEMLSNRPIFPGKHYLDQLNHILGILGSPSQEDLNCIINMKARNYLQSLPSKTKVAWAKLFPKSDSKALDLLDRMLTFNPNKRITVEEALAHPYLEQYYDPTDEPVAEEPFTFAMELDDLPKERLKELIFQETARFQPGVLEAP
Chain of Mitogen-activated protein kinase; ERK1/ERK2 (Homo sapiens) (P28482 whole entry, looked up): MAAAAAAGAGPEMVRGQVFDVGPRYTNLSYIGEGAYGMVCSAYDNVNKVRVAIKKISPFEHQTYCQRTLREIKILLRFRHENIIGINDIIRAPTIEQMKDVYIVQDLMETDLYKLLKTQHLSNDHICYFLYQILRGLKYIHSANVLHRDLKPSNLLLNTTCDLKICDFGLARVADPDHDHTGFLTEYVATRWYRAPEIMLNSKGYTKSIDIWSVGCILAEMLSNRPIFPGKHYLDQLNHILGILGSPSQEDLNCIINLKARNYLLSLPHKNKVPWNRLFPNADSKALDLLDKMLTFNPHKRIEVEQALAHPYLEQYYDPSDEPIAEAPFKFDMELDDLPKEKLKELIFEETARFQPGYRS

HCC827 [9] = experiment: Inhibition of colony formation in human HCC827 cells at 100 nM measured after 14 days by crystal violet staining based analysis relative to control; type: functional; details: HCC827, 336 h, time 14 day
HCC827 [10] = experiment: Induction of apoptosis in human HCC827 cells assessed as necrotic cells at 30 nM measured after 24 hrs by annexin V/PI staining based flu cytometry analysis (reference value: 7.34%); type: functional
HCC827 [11] = experiment: Induction of apoptosis in human HCC827 cells assessed as viable cells at 100 nM measured after 24 hrs by annexin V/PI staining based flu cytometry analysis (reference value: 84.0%); type: functional; details: read-out: Activity
HCC827 [12] = experiment: Induction of cell cycle arrest in human HCC827 cells assessed as accumulation of cells at G0/G1 phase at 30 nM measured after 24 hrs by PI staining based flow cytometry analysis (reference value: 54.36%); type: functional
[13] = biological target: Proto-oncogene tyrosine-protein kinase ROS (Homo sapiens) (UniProt P08922); experiment: Inhibition of ROS (unknown origin) by HTRF assay relative to control; details: concentration not given here
[14] = Toxicity in BALB/c nude mouse assessed as effect on body weight loss at 10 to 50 mg/kg/day, po measured every three days for 21 days; type: organism-based; details: in vivo, 504 h, dose 10-50 mg/kg/day, time 21 day
HCC827 [15] = experiment: Induction of apoptosis in human HCC827 cells assessed as late apoptotic cells at 30 nM measured after 24 hrs by annexin V/PI staining based flu cytometry analysis (reference value: 5.50%); type: functional
A549 = experiment: Antiproliferative activity against human A549 cells assessed as inhibition of cell growth measured after 72 hrs by MTT assay; type: functional, cell-based; details: A549, 72 h
[16] = biological target: Dual specificity mitogen-activated protein kinase kinase; MEK1/2 (Homo sapiens) (UniProt P36507+Q02750); experiment: Inhibition of MEK1/2 (unknown origin) by HTRF assay relative to control; type: protein assay; details: concentration not given here
Chain of Dual specificity mitogen-activated protein kinase kinase; MEK1/2 (Homo sapiens) (P36507 whole entry, looked up): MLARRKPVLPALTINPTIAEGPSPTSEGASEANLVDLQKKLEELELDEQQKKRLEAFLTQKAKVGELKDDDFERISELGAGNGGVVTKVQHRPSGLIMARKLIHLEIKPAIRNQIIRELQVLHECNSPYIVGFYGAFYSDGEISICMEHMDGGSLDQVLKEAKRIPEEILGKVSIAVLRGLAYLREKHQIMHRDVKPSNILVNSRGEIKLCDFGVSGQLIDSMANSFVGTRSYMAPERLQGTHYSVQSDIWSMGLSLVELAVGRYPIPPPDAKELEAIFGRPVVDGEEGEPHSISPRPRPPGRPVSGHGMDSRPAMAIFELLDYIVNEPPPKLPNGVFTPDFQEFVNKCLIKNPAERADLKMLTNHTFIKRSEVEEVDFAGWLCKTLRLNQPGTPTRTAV
Chain of Dual specificity mitogen-activated protein kinase kinase; MEK1/2 (Homo sapiens) (Q02750 whole entry, looked up): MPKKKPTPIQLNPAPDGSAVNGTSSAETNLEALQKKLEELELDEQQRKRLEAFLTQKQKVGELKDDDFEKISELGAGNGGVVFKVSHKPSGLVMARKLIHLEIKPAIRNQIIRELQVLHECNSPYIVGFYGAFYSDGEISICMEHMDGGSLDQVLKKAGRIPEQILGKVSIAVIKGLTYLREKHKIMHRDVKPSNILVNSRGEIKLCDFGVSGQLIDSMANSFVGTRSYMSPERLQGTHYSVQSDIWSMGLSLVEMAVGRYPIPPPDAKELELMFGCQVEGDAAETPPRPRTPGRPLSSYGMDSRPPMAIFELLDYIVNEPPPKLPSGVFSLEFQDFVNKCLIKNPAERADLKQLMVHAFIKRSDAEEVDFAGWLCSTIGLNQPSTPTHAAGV

[17] = biological target: Mast/stem cell growth factor receptor Kit (Homo sapiens) (UniProt P10721); experiment: Inhibition of c-kit (unknown origin) by HTRF assay relative to control; details: concentration not given here
Chain of Mast/stem cell growth factor receptor Kit (Homo sapiens) (P10721 whole entry): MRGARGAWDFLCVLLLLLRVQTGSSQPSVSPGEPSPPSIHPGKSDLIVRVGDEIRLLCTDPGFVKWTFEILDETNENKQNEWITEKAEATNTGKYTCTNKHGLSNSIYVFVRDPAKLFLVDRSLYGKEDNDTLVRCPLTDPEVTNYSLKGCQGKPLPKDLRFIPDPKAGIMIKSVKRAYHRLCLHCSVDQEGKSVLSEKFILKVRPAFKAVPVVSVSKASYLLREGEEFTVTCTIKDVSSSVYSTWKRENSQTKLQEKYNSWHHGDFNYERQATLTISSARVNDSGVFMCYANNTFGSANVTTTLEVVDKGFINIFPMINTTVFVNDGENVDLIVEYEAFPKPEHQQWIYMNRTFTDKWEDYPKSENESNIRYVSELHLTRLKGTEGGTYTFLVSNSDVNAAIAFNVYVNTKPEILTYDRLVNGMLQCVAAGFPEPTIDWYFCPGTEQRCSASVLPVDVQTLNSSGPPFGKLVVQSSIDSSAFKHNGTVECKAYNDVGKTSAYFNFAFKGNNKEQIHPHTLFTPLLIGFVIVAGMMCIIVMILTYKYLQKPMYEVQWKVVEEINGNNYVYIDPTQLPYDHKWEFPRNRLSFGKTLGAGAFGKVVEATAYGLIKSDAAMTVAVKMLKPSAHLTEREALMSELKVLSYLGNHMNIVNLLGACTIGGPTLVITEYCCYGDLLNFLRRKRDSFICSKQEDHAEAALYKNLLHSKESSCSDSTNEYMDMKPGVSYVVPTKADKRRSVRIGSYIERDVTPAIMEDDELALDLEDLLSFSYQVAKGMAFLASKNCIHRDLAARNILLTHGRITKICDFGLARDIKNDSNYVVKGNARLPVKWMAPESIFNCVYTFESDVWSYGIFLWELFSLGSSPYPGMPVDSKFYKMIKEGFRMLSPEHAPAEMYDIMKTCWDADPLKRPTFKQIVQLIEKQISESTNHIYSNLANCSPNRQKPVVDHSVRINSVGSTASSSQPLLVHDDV

HCC827 [18] = experiment: Induction of apoptosis in human HCC827 cells assessed as late apoptotic cells at 10 nM measured after 24 hrs by annexin V/PI staining based flu cytometry analysis (reference value: 5.50%); type: functional
HCC827 [19] = experiment: Induction of apoptosis in human HCC827 cells assessed as early apoptotic cells at 30 nM measured after 24 hrs by annexin V/PI staining based flu cytometry analysis (reference value: 3.2%); type: functional
Homo sapiens [20] = species: Homo sapiens; experiment: Inhibition of FGFR (unknown origin) by HTRF assay relative to control; details: concentration not given here
HCC827 [21] = experiment: Induction of cell cycle arrest in human HCC827 cells assessed as accumulation of cells at G2/M phase at 10 nM measured after 24 hrs by PI staining based flow cytometry analysis (reference value: 16.83%); type: functional
[22] = Cytotoxicity against human L02 cells assessed as inhibition of cell viability measured after 72 hrs by MTT assay; type: toxicity, cell-based
HCC827 [23] = experiment: Antiproliferative activity against human HCC827 cells assessed as inhibition of cell growth measured after 72 hrs by MTT assay; type: functional, cell-based; details: HCC827, 72 h
Homo sapiens [24] = species: Homo sapiens; experiment: Inhibition of Akt (unknown origin) by HTRF assay relative to control; details: concentration not given here
HCC827 [25] = experiment: Induction of apoptosis in human HCC827 cells assessed as early apoptotic cells at 100 nM measured after 24 hrs by annexin V/PI staining based flu cytometry analysis (reference value: 3.2%); type: functional
[26] = biological target: Epidermal growth factor receptor (Homo sapiens, UniProt P00533, C797S/EX19DEL/T790M); experiment: Inhibition of EGFR Del19/T790M/C797S triple mutant (unknown origin) preincubated for 10 mins followed by substrate addition and measured after 50 mins in presence of ATP by HTRF assay
Chain of Epidermal growth factor receptor (Homo sapiens, UniProt P00533, C797S/EX19DEL/T790M) (P00533 whole entry, looked up, stated change not applied): as the sequence (P00533 whole entry) above

HCC827 [27] = experiment: Induction of cell cycle arrest in human HCC827 cells assessed as accumulation of cells at S phase at 30 nM measured after 24 hrs by PI staining based flow cytometry analysis (reference value: 28.81%); type: functional

O=C(NO)c1sccc1Nc1nc(Nc2ccc(N3CCOCC3)cc2)ncc1Cl
inhibition [1]: 99.5%
IC50 [2]: 11.8 nM
IC50 [3]: 16.2 nM
inhibition in vivo at 50 mg/kg/day (HCC827 [4]): 89.5%
inhibition (Homo sapiens [5]): < 70%
inhibition in vivo at 10 mg/kg/day (HCC827 [6]): 50.6%
viability at 0.01 µM (HCC827 [7]): 77.6%
inhibition [8]: Active
inhibition at 0.1 µM (HCC827 [9]): 100%
Activity (HCC827 [10]): 7.64%
viability at 0.1 µM (HCC827 [11]): 76%
Activity (HCC827 [12]): 68.63%
inhibition [13]: < 70%
Activity [14]: Non-Toxic
Activity (HCC827 [15]): 10.4%
IC50 (A549): 703 nM
inhibition [16]: < 70%
inhibition [17]: < 70%
Activity (HCC827 [18]): 6.53%
Activity (HCC827 [19]): 11.4%
inhibition (Homo sapiens [20]): < 70%
Activity (HCC827 [21]): 17.56%
IC50 at 72 h [22]: 2450 nM
IC50 (HCC827 [23]): 25 nM
inhibition (Homo sapiens [24]): < 70%
Activity (HCC827 [25]): 3.41%
IC50 [26]: 16.1 nM
Activity (HCC827 [27]): 12.31%
